The text below walks through data of paper PMC10111423, “Antimalarial Imidazopyridines Incorporating an Intramolecular Hydrogen Bonding Motif: Medicinal Chemistry and Mechanistic Studies” (ACS Infectious Diseases, 2023).

The test system of one series is β-hematin. The series is described as follows: β-Hematin inhibition assay (BHIA), cell-free NP-40 mediated. Format: biochemical. Particulars: mean of n = 3. Here is the method:
page 20: fold to attain six assay concentrations of 100-0.001 μg/mL. […] was used as the reference compound in this assay. The highest concentration of DMSO, which was used as the negative control, had no measurable effect on cell viability. After 44 hours of exposure of the cells to the test compounds, a solution of MTT was added. This was followed by an additional 4 hours of incubation at 37 °C. The assay plates were centrifuged, medium removed, and DMSO was added to the crystals. The amount of formazan was ascertained by measuring the absorbance at 540 nm. GraphPad Prism software was then used to generate IC50 values through a non-linear dose-response curve analysis. β-Hematin Inhibition Assay 20 mM stock solutions of controls and test compounds were made in DMSO. A solution […] was added to every well in columns 1-11 of a 96-well plate. 140 μL of water and 40 μL of 305.5 μM NP-40 were added to column 12 to mediate the formation of beta-hematin. 20 μL of test compounds (20 mM) were added to column 12 and 100 μL of this solution serially diluted to column 2, leaving column 1 blank (0 μM of test compound). 178.8 μL aliquot of hematin stock was suspended in 20 ml of a 1 M acetate buffer at pH 4.9. 100 μL of this hematin […] pH 7.4 and 50% pyridine) and 60 μL of acetone were added to all wells. The absorbances of plate wells were recorded at 405 nm on a SpectraMax plate reader. Sigmoidal dose-response curves with variable slopes were fitted to the absorbance data using GraphPad Prism to obtain the IC50 values for each compound. In vitro Microsomal Stability Assay The in vitro microsomal stability assay was performed in duplicate in a 96-well micro titre […] individually in human (pool of 50, mixed gender), rat (pool of 711, male Sprague Dawley) and mouse (pool of 1634, male CD1) liver microsomes (final protein concentration of 0.4 mg/mL; Xenotech, Kansas, USA), suspended in 0.1M phosphate buffer (pH 7.4). Incubations were S20

Series [1] relates to chloroquine-sensitive (NF54) strain of P. falciparum. The series is described as follows: In vitro asexual blood-stage antiplasmodium pLDH assay, NF54 strain. It is filed as cell-based. Particulars: Plasmodium falciparum, NF54; pLDH, 72 h, n ≥ 3; read-out: In vitro antiplasmodium activity IC50 PfNF54 strain. How it is done: (§1) Compounds were screened against multi-drug-resistant (K1) and sensitive (NF54) strains of P. falciparum in vitro using a parasite lactate dehydrogenase assay (pLDH) (the method is described fully in the Supporting Information). […]
(§2) In vitro Asexual Blood Stage Antiplasmodium Assay
(§3) Parasites were cultured as per the method of Trager and Jensen,1 with modifications. IC50 values were determined using parasite lactate dehydrogenase as a marker for survival (Makler […]
(§4) et al, 1993). The test samples were prepared to a 10 mmol/L stock solution in 100% DMSO.
(§5) Samples were tested as a suspension if not completely dissolved. Further dilutions to the desired starting concentration were freshly prepared in growth media on each occasion of the experiment. The standard antimalarial drugs chloroquine (CQ) and artesunate (Arts) were used as the reference drug in all experiments. A full dose-response was performed for all compounds in a 96-well plate to determine the concentration inhibiting 50% of parasite growth (IC50– value). Test samples were tested at a starting concentration of 6mmol/L, which was then serially diluted 2-fold in growth medium to generate the tested concentration range. The same dilution technique was used for all samples. CQ and Arts were tested from a starting concentration of 1µg/mL. The highest concentration of solvent to which the parasites were exposed was <0.1% and has no measurable effect on the parasite viability (data not shown).
(§6) The assay plate was incubated at 37 °C for 72h in a sealed gas chamber under 3% O2 and 4% CO2 with the balance being N2. After 72h, the wells in the assay plate were gently resuspended, and 15µL from each well was transferred to a duplicate plate containing 100µL of Malstat reagent and 25µL of nitroblue tetrazolium solution in each well. Plates were left to develop for 20 minutes in the dark and then absorbance of each well was quantified using a spectrophotometer at 620nm wavelength.
(§7) The remaining population of parasites at each concentration of the test compound was determined by comparing the absorbance of each well to the absorbance of a well containing […]
(§8) the drug-free control. […]
(§9) The initial 100 µg/mL solution is serially diluted 10-

Series [2] has as its system multidrug-resistant (K1) strain of P. falciparum. The series is described as follows: In vitro asexual blood-stage antiplasmodium pLDH assay, K1 strain. Format: cell-based. Particulars: Plasmodium falciparum, 72 h, n ≥ 3, read-out: In vitro antiplasmodium activity IC50 PfK1 strain. Here is the method:
as §1, §2, §3, §4, §5, §6, §7, §8, §9

Series [3] can be described thus: In vitro cytotoxicity MTT assay. Format: cell-based, Chinese hamster. Particulars: Chinese hamster, Chinese hamster ovarian (CHO) cells; MTT assay. Here is the method:
(§10) In vitro cytotoxicity was performed on the Chinese Hamster Ovarian cell line by measuring cellular growth and survival calorimetrically through the MTT assay.[29],[30] The formation of tetrazolium salt was used as a measure of chemosensitivity and growth. (Details of this assay is described in the Supporting Information.) page 19: et al, 1993). The test samples were prepared to a 10 mmol/L stock solution in 100% DMSO. Samples were tested as a suspension if not completely dissolved. Further dilutions to the desired starting concentration were freshly prepared in growth media on each occasion of the experiment. The standard antimalarial drugs chloroquine (CQ) and artesunate (Arts) were used as the reference drug in all experiments. A full dose-response was performed for all compounds […] value). Test samples were tested at a starting concentration of 6mmol/L, which was then serially diluted 2-fold in growth medium to generate the tested concentration range. The same dilution technique was used for all samples. CQ and Arts were tested from a starting concentration of 1μg/mL. The highest concentration of solvent to which the parasites were exposed was <0.1% and has no measurable effect on the parasite viability (data not shown). The assay plate was incubated at 37 °C for 72h in a sealed gas chamber under 3% O2 and 4% CO2 with the balance being N2. After 72h, the wells in the assay plate were gently resuspended, and 15μL from each well was transferred to a duplicate plate containing 100μL of Malstat reagent and 25μL of nitroblue tetrazolium solution in each well. Plates were left to develop for 20 minutes in the dark and then absorbance of each well was quantified using a spectrophotometer at 620nm wavelength. The remaining population of parasites at each concentration of the test compound was determined by comparing the absorbance of each well to the absorbance of a well containing the drug-free control. Survival was plotted against concentration and the IC50 values were obtained using a non-linear dose-response curve fitting analysis via the Dotmatics software platform.2 In vitro Cytotoxicity Assay In vitro cytotoxicity was performed on the Chinese Hamster Ovarian cell line by measuring […] diphenyltetrazolium bromide (MTT) assay.3,4 The formation of tetrazolium salt was used as a measure of chemosensitivity and growth. 2 mg/mL stock solutions of the test compounds were prepared in DMSO and stored at -20 °C until required. The stock solution was subsequently diluted with the assay medium to make up an initial concentration of 100 μg/mL. The initial 100 μg/mL solution is serially diluted 10- S19 page 20: fold to attain six assay concentrations of 100-0.001 μg/mL. […] was used as the reference compound in this assay. The highest concentration of DMSO, which was used as the negative control, had no measurable effect on cell viability. After 44 hours of exposure of the cells to the test compounds, a solution of MTT was added. This was followed by an additional 4 hours of incubation at 37 °C. The assay plates were centrifuged, medium removed, and DMSO was added to the crystals. The amount of formazan was ascertained by measuring the absorbance at 540 nm. GraphPad Prism software was then used to generate IC50 values through a non-linear dose-response curve analysis. β-Hematin Inhibition Assay 20 mM stock solutions of controls and test compounds were made in DMSO. A solution […] was added to every well in columns 1-11 of a 96-well plate. 140 μL of water and 40 μL of 305.5 μM NP-40 were added to column 12 to mediate the formation of beta-hematin. 20 μL of test compounds (20 mM) were added to column 12 and 100 μL of this solution serially diluted to column 2, leaving column 1 blank (0 μM of test compound). 178.8 μL aliquot of hematin stock was suspended in 20 ml of a 1 M acetate buffer at pH 4.9. 100 μL of this hematin suspension was then added into each well, and the plates were incubated for ±5 hrs at 37°C. […]
(In general: Formazan colour is commonly taken as a measure of viable cells.)

Series [4] has as its system Chinese hamster ovarian (CHO) cell line. The experiment in a line: In vitro cytotoxicity MTT assay. Format: cell-based. Particulars: CHO vs PfNF54. Here is the method: as §10
The nature of a further series: Solubility. Format: physicochemical. Particulars: pH 6.5, aqueous buffer. An excerpt:
Table 1 In Vitro Antiplasmodium Activity, Cytotoxicity, BHIA, and Solubility | column: Solubility pH 6.5, μM

≈ marks a conversion by molar mass, not a printed value.

As a reminder, the IC50 is the concentration at which inhibition is half-maximal. One may read the solubility as the concentration that dissolves in the medium under given conditions. A higher solubility goes with a readily soluble substance.

As to `CCN(CCNc1cc2[nH]c([C@H]3CC[C@H](C(F)(F)F)CC3)nc2cn1)Cc1ccc(Cl)cc1O` [Compound 16, 5-Chloro-2-((ethyl(2-((2-((1r,4r)-4-(trifluoromethyl)cyclohexyl)-1H-imidazo[4,5-c]pyridin-6-yl)amino)ethyl)amino)methyl)phenol], the 50% inhibitory concentration (IC50) with β-hematin came to 127 µM; in series [1], 0.56 µM; in series [2] it was 1.89 µM. In series [3], the IC50 at 44 h is more than 50 µM. The “SI (selectivity index) = IC50 CHO/IC50 PfNF54” value in series [4] is recorded as more than 89.29. The solubility in “Solubility” was 135 µM (≈ 67 µg/mL).
In the case of `CCN(CCNc1cc2[nH]c(C3CCCCCC3)nc2cn1)Cc1ccc(Cl)cc1O` [Compound 15, 5-Chloro-2-(((2-((2-cycloheptyl-1H-imidazo[4,5-c]pyridin-6-yl)amino)ethyl)(ethyl)amino)methyl)phenol], the half-inhibitory concentration (IC50) with β-hematin is 137 µM; in series [1] it was 0.67 µM; in series [2] it was 2.48 µM. Besides, in series [3], the IC50 at 44 h turned out to be 50 µM. Further, the “SI (selectivity index) = IC50 CHO/IC50 PfNF54” value in series [4] came out at 74.60. In addition, in “Solubility”, the concentration in solution (solubility) came to 150 µM (≈ 66.3 µg/mL).
Turning to `CCN(CCNc1cc2[nH]c(C)nc2cn1)Cc1ccc(Cl)cc1O` [Compound 4, 5-Chloro-2-((ethyl(2-((2-methyl-1H-imidazo[4,5-c]pyridin-6-yl)amino)ethyl)amino)methyl)phenol], the IC50 in the series on β-hematin is 257 µM; in series [1], 2.53 µM; in series [2] it was 4.11 µM. In series [3], this compound displayed an IC50 at 44 h of more than 50 µM. The “SI (selectivity index) = IC50 CHO/IC50 PfNF54” value in series [4] is on record as more than 19.76. The same compound returned a solubility in “Solubility” of 135 µM (≈ 48.6 µg/mL).
Regarding `CCN(CCNc1cc2[nH]c(C3CC(F)(F)C3)nc2cn1)Cc1ccc(Cl)cc1O` [Compound 10, 5-Chloro-2-(((2-((2-(3,3-difluorocyclobutyl)-1H-imidazo[4,5-c]pyridin-6-yl)amino)ethyl)(ethyl)amino)methyl)phenol], the figures for the IC50 (with β-hematin; in series [1]; in series [2]) were 76 µM, 0.86 µM and 5.27 µM, respectively. In addition, the concentration for half-maximal inhibition (IC50) at 44 h in series [3] was more than 50 µM. The “SI (selectivity index) = IC50 CHO/IC50 PfNF54” value in series [4] was more than 58.14. Moreover, the solubility in the series “Solubility” came out at 175 µM (≈ 76.3 µg/mL).
In the case of `CCN(CCNc1cc2[nH]c(C3CCCN3C)nc2cn1)Cc1ccc(Cl)cc1O` (stereo not drawn) [Compound 13, 5-Chloro-2-((ethyl(2-((2-(1-methylpyrrolidin-2-yl)-1H-imidazo[4,5-c]pyridin-6-yl)amino)ethyl)amino)methyl)phenol], the values for the IC50 (in the series on β-hematin; in series [1]; in series [2]) were 285 µM, 1.03 µM and 3.9 µM, respectively. For the same compound, the IC50 at 44 h in series [3] is more than 50 µM. The “SI (selectivity index) = IC50 CHO/IC50 PfNF54” value in series [4] is recorded as more than 48.54. This compound gave a solubility in the series “Solubility” of 175 µM (≈ 75.1 µg/mL).
For `CCN(CCNc1cc2[nH]c(C3CCC3)nc2cn1)Cc1ccc(Cl)cc1O` [Compound 9, 5-Chloro-2-(((2-((2-cyclobutyl-1H-imidazo[4,5-c]pyridin-6-yl)amino)ethyl)(ethyl)amino)methyl)phenol], the 50% inhibitory concentration (IC50) with β-hematin worked out at 128 µM; in series [1], 0.67 µM; in series [2] it was 6 µM. In addition, in series [3], the IC50 at 44 h was more than 50 µM. For the same compound, the “SI (selectivity index) = IC50 CHO/IC50 PfNF54” value in series [4] was more than 74.63. The compound further displayed a solubility in “Solubility” of 170 µM (≈ 68 µg/mL).
With `CCN(CCNc1cc2[nH]c(C3CCC(OC)CC3)nc2cn1)Cc1ccc(Cl)cc1O` (stereo not drawn) [Compound 18, 5-Chloro-2-((ethyl(2-((2-(4-methoxycyclohexyl)-1H-imidazo[4,5-c]pyridin-6-yl)amino)ethyl)amino)methyl)phenol], the 50% inhibitory concentration (IC50) came to 18 µM in the series on β-hematin, 2.91 µM in series [1] and 2.34 µM in series [2]. Further, the IC50 at 44 h in series [3] was more than 50 µM. For the same compound, the “SI (selectivity index) = IC50 CHO/IC50 PfNF54” value in series [4] is listed as more than 17.18. In addition, in the series “Solubility”, the concentration in solution (solubility) came to 120 µM (≈ 55 µg/mL).
